Data reported in ChEMBL document CHEMBL5465560, “Selectivity Literature for EUbOPEN Chemogenomic Library” (2024).
pIC50: −log10 of the molar value. Values belong to the compound of their own block, whether it stands above or below them.

Experiments:
[1] = molecular target: Sphingosine kinase 1 (Homo sapiens) (UniProt Q9NYA1); conditions: at 1 µM
[2] = molecular target: T1, Serine/threonine-protein kinase Nek2 (Homo sapiens) (UniProt P51955); assay: Selectivity interaction (SelectScreen profiling (Invitrogen)) EUB0000607a NEK2; conditions: at 2 µM
T1 sequence (whole entry): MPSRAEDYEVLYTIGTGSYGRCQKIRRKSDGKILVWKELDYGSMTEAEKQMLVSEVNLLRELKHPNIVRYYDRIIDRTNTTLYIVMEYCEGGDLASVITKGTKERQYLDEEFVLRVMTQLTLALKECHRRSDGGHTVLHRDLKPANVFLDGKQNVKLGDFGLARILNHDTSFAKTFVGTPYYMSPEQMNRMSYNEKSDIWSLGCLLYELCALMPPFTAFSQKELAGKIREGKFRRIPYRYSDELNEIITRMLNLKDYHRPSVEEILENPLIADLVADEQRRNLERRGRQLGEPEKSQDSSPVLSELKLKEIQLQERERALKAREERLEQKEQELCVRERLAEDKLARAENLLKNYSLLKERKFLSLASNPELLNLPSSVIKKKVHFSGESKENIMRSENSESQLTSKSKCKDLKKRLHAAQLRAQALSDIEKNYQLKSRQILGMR

[3] = molecular target: Mitogen-activated protein kinase 1 (Homo sapiens, UniProt P28482); assay: Selectivity interaction (ActivX KiNativ screen (ex vivo kinase selectivity in human PBMCs)) EUB0001619a MAPK1; type: cell-based; conditions: PBMC, at 1 µM
[4] = molecular target: Protein-tyrosine kinase 2-beta (Homo sapiens) (UniProt Q14289); assay: Selectivity interaction (ActivX KiNativ screen (ex vivo kinase selectivity in human PBMCs)) EUB0001619a PTK2B; type: cell-based; conditions: PBMC, at 1 µM
[5] = molecular target: Protein arginine N-methyltransferase 3 (Homo sapiens, UniProt O60678); assay: Selectivity interaction (Scintillation proximity assays) EUB0000230b PRMT3
[6] = molecular target: Cyclin-dependent kinase 14 (Homo sapiens) (UniProt O94921); conditions: at 10 µM
[7] = molecular target: Calcium/calmodulin-dependent protein kinase type 1G (Homo sapiens) (UniProt Q96NX5); conditions: at 10 µM
[8] = molecular target: Cyclin-dependent kinase 16 (Homo sapiens) (UniProt Q00536); assay: Selectivity interaction (ActivX KiNativ screen (kinase selectivity in THP-1 cell lysates)) EUB0000639a CDK16; type: subcellular; conditions: lysate, at 5 µM
[9] = molecular target: MAP/microtubule affinity-regulating kinase 3 (Homo sapiens) (UniProt P27448); assay: Selectivity interaction (ActivX KiNativ screen (kinase selectivity in THP-1 cell lysates)) EUB0000639a MARK3; type: subcellular; conditions: lysate, at 0.01 µM
[10] = molecular target: Serine/threonine-protein kinase PLK1 (Homo sapiens, UniProt P53350); assay: Selectivity interaction (ProQinase) EUB0000171b PLK1
[11] = molecular target: Serine/threonine-protein kinase pim-2 (Homo sapiens, UniProt Q9P1W9); assay: Selectivity interaction (ProQinase) EUB0000171b PIM2
[12] = molecular target: Leukocyte tyrosine kinase receptor (Homo sapiens, UniProt P29376); assay: Selectivity interaction (KinomeScan (DiscoverX)) EUB0001049a LTK; conditions: at 1 µM
[13] = molecular target: Tyrosine-protein kinase Fyn (Homo sapiens) (UniProt P06241); assay: Selectivity interaction (Kinase panel (Z-LYTE Assay)) EUB0001632a FYN; conditions: at 10 µM
[14] = molecular target: T2, Cyclin-G-associated kinase (Homo sapiens) (UniProt O14976); assay: Selectivity interaction (KinomeScan (DiscoverX)) EUB0000695a GAK; conditions: at 100 nM
T2 sequence (whole entry): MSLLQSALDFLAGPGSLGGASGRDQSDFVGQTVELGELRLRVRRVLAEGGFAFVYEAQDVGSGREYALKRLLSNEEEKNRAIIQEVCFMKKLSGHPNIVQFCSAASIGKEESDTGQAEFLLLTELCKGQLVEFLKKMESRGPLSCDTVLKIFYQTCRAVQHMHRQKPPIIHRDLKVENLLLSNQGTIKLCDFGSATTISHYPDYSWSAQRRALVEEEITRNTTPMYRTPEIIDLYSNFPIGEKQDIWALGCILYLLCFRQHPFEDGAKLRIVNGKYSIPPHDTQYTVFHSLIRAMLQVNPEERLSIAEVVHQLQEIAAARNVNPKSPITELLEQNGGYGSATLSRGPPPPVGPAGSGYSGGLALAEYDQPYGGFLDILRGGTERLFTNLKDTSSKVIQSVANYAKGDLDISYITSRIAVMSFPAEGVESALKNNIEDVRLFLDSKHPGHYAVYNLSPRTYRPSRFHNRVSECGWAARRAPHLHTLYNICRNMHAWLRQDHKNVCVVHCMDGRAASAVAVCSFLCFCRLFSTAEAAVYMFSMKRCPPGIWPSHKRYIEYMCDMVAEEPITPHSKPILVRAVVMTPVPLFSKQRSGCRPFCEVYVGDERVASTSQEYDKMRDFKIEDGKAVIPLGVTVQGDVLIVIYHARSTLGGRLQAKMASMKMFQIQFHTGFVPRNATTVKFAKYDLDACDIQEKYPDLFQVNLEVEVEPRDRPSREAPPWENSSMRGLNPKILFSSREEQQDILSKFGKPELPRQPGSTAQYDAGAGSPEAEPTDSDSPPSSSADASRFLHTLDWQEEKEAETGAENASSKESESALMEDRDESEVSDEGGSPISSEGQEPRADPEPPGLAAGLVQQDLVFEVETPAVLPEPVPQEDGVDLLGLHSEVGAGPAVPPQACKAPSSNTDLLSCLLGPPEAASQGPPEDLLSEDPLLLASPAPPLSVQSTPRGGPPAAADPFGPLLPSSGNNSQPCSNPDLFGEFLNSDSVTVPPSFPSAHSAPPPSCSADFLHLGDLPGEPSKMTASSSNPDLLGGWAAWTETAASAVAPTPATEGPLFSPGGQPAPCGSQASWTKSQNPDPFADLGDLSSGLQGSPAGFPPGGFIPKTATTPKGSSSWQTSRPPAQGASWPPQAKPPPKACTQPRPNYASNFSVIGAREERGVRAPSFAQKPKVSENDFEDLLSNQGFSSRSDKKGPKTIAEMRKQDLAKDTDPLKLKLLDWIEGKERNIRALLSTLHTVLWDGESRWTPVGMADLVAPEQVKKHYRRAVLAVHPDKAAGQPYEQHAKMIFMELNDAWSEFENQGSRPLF

Serine/threonine-protein kinase pim-2, sequence (Q9P1W9 whole entry, looked up): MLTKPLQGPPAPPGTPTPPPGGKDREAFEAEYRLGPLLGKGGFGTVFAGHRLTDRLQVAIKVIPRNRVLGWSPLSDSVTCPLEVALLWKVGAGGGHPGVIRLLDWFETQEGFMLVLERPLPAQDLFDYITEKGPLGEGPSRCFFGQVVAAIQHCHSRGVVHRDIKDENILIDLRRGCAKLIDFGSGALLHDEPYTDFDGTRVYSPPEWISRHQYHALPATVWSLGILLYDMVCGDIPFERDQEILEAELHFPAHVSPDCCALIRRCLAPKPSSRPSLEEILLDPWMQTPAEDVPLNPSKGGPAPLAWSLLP
Serine/threonine-protein kinase PLK1, sequence (P53350 whole entry): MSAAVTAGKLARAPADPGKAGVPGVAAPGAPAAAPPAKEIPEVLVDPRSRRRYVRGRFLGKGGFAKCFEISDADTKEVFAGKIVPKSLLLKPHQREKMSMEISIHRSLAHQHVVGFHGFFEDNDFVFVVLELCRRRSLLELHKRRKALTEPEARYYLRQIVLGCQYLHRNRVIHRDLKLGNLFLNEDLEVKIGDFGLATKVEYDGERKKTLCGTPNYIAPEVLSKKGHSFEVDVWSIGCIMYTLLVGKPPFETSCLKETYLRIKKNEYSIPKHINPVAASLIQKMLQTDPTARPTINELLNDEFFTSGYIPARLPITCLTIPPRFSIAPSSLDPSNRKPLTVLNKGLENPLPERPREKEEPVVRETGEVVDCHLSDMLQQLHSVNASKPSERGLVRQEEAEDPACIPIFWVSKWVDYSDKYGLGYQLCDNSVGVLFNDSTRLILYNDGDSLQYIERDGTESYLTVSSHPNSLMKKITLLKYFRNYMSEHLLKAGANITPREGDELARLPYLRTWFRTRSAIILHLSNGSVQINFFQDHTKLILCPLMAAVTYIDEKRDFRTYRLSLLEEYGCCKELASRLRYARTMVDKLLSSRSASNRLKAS
Sphingosine kinase 1 (Homo sapiens), sequence (Q9NYA1 whole entry): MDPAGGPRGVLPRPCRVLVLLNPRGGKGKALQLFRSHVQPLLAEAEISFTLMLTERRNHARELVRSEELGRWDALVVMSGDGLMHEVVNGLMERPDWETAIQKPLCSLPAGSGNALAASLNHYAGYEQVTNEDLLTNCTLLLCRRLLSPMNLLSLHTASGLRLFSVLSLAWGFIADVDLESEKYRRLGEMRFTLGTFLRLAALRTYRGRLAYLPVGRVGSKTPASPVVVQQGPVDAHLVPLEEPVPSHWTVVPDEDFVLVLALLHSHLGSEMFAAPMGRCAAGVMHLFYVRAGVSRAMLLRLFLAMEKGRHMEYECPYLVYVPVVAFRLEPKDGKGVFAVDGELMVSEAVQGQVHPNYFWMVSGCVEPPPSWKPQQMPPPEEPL
Protein-tyrosine kinase 2-beta (Homo sapiens), sequence (Q14289 whole entry, looked up): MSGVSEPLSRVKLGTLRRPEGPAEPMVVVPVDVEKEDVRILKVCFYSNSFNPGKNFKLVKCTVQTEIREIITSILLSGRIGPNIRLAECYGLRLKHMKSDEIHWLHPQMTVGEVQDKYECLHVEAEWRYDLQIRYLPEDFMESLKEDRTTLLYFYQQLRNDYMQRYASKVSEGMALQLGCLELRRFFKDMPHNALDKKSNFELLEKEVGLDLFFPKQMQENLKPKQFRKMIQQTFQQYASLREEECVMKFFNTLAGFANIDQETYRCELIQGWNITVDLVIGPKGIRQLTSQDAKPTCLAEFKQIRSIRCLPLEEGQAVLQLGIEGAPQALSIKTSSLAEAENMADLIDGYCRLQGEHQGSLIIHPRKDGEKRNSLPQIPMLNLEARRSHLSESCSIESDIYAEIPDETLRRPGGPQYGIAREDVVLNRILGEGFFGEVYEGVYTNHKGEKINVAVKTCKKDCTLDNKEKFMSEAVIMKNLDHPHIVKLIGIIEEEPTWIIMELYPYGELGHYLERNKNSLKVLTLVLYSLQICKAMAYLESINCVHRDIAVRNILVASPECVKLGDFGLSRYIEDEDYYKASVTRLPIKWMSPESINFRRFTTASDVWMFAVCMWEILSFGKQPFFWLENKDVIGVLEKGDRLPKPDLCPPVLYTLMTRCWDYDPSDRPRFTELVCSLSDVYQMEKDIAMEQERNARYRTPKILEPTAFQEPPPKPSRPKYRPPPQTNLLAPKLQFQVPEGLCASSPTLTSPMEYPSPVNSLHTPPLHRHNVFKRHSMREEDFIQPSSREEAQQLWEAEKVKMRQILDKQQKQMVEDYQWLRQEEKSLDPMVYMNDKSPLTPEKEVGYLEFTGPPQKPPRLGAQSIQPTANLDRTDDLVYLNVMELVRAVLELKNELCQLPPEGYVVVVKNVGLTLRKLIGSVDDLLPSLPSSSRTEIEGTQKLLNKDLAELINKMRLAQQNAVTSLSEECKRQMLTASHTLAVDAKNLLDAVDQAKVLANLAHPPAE
Tyrosine-protein kinase Fyn (Homo sapiens), sequence (P06241 2-537 limits assumed): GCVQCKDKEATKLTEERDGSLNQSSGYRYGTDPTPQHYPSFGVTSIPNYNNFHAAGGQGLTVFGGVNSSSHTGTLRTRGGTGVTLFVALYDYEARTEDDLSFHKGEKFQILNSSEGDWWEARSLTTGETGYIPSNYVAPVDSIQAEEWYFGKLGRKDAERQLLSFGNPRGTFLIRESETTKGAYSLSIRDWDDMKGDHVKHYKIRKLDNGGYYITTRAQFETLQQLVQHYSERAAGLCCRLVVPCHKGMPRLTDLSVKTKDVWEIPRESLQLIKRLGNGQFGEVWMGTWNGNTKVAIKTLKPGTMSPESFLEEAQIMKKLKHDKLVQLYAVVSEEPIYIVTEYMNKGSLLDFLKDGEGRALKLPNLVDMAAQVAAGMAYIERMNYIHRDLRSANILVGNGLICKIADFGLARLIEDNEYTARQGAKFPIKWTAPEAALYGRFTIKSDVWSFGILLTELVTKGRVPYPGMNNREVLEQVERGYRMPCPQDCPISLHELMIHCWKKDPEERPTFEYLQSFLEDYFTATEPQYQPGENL
Cyclin-dependent kinase 16 (Homo sapiens), sequence (Q00536 whole entry): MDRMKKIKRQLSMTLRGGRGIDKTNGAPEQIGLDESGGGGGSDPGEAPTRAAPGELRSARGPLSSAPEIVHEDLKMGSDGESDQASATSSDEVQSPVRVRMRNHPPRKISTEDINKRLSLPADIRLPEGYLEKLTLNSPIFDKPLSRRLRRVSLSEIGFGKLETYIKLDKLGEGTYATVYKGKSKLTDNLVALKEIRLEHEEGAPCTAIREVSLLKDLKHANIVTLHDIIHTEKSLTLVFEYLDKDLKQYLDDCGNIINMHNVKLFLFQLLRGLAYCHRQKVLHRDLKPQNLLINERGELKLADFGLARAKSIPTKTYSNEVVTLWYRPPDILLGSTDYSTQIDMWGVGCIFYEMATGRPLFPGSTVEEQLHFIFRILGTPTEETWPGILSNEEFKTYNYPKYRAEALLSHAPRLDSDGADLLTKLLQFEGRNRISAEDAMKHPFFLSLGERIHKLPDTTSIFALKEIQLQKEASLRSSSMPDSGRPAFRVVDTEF
Leukocyte tyrosine kinase receptor, sequence (P29376 whole entry): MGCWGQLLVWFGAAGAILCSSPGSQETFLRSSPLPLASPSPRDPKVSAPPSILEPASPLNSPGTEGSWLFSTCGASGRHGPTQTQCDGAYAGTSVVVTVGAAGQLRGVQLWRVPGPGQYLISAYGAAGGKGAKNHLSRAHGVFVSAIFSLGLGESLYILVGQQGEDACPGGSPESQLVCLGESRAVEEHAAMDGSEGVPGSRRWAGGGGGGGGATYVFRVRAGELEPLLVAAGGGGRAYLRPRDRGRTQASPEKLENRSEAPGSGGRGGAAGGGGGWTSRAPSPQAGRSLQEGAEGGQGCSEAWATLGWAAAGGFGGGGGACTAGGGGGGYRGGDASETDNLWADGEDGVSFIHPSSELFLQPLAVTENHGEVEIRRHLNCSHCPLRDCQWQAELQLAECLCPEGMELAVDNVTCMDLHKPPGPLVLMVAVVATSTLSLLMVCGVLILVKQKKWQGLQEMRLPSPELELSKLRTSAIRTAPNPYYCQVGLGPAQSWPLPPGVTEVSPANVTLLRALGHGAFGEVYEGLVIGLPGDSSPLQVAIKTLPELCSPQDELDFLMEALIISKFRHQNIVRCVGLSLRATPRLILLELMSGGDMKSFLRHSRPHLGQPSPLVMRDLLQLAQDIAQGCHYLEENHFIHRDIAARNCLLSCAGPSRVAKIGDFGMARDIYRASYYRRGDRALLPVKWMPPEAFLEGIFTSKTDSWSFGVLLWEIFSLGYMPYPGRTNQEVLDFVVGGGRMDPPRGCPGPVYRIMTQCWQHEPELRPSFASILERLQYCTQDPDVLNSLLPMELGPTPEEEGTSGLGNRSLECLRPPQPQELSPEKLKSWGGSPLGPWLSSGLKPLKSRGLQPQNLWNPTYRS
MAP/microtubule affinity-regulating kinase 3 (Homo sapiens), sequence (P27448 whole entry, looked up): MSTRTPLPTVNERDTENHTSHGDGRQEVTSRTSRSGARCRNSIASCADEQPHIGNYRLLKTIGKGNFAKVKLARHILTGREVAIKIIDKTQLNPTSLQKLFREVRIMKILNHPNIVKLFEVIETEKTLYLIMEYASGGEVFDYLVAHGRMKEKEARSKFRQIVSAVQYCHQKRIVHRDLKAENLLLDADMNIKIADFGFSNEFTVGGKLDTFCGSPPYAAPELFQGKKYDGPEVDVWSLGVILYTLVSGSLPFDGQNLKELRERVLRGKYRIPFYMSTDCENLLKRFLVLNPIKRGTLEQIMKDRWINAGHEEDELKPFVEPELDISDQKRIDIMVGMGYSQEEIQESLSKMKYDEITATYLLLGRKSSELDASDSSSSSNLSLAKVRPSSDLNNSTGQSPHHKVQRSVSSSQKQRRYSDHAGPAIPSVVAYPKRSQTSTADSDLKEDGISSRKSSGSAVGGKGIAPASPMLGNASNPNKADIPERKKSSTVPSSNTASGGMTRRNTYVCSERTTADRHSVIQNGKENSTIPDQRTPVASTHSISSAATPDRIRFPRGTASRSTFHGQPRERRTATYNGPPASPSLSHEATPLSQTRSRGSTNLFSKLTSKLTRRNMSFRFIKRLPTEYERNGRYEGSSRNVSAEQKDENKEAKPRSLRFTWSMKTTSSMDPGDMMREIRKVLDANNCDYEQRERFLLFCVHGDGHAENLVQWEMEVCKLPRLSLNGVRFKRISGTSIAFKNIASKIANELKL

Compound: CNC(=O)Nc1ccc(-c2nc(N3CC4CCC(C3)O4)c3cnn(C4CCC5(CC4)OCCO5)c3n2)cc1
% of inhibition [2]: 10%

Compound: N#Cc1cccc(-c2c[nH]c3ncnc(N4CCOCC4)c23)c1
% of inhibition [3]: 3%
% of inhibition [4]: 3%

Compound: Cc1cc([C@@H](C)Nc2ccccc2C(=O)O)c2nc(N3CCOCC3)cc(=O)n2c1 [AZD-6482]
% of control [6]: 100%
% of control [7]: 91%

Compound: COc1cc(Nc2nc(C)cc(-c3cnn4nc(OC)ccc34)n2)cc(C(F)(F)F)c1
% of control [12]: 91%

Compound: Cc1cc(F)c(C(=O)Nc2cccc(-c3nncn3C(C)C)n2)cc1-n1cnc(C2CC2)c1
% of control [14]: 88%

Second part, the compound after the results:

% of inhibition [1]: -3%
Compound: CN1Cc2nccc(-c3cn(C)nc3-c3ccc(F)cc3)c2C1=O

pIC50 [5]: < 5.00
Compound: CNCCN1CCC(c2cc(CN(C)C(=O)c3cccc(Oc4ccccc4)c3)ccn2)CC1

% of inhibition [8]: 41.7%
% of inhibition [9]: 2.3%
Compound: CC[C@@H]1[C@H](F)C(=O)N[C@@H]1COc1nccc2cc(C(N)=O)c(OC)cc12 [ZIMLOVISERTIB]

% of control ([10]; at 1 µM): 98%
% of control ([10]; at 5 µM): 96%
% of control ([11]; at 1 µM): 101%
% of control ([11]; at 5 µM): 69%
Compound: C=CC(=O)Nc1cccc(C(=O)Nc2ccc(Nc3cc(-c4[nH]c(SC)nc4C)ccn3)cc2)c1

% of control [13]: 1.52%
Compound: Cn1cc(-n2cnc3c(NCc4nc5cc(Cl)c(Cl)cc5[nH]4)nc(N4CCOCC4)nc32)cn1
